In PubChem BioAssay AID1963981 (Molecular Pharmacology Branch, DTP, NCI, 2024):
Blank lines part the entries; values can stand above or below the compound they belong to.

Tested on: 354836-022-R-J1-PDC multicell spheroid viability
Experiment: Anticancer human tumor 354836-022-R-J1-PDC patient-derived head and neck squamous cell carcinoma cell line growth inhibition [PI3K]
Conditions: for viability, T/C: stronger effect = lower value
Outline: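 Tumor cells were combined with HUVEC and MSCs into spheroids, then dosed with PI3K-inhibitor combinations over half-log ranges capped near clinical Cmax or 10 microM.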

[1] = curve of first compound, second compound 0.0316 µM
[2] = curve of first compound, second compound 0.1 µM
[3] = curve of first compound, second compound 0.316 µM
[4] = curve of first compound, second compound 1 µM
[5] = curve of first compound, second compound 3.16 µM
[6] = curve of first compound, second compound 10 µM
[7] = second compound 0.0316 µM, first compound 0.0316 µM
[8] = second compound 0.0316 µM, first compound 0.1 µM
[9] = second compound 0.0316 µM, first compound 0.316 µM
[10] = second compound 0.0316 µM, first compound 1 µM
[11] = second compound 0.1 µM, first compound 0.0316 µM
[12] = second compound 0.1 µM, first compound 0.1 µM
[13] = second compound 0.1 µM, first compound 0.316 µM
[14] = second compound 0.1 µM, first compound 1 µM
[15] = second compound 0.316 µM, first compound 0.0316 µM
[16] = second compound 0.316 µM, first compound 0.1 µM
[17] = second compound 0.316 µM, first compound 0.316 µM
[18] = second compound 0.316 µM, first compound 1 µM
[19] = second compound 1 µM, first compound 0.0316 µM
[20] = second compound 1 µM, first compound 0.1 µM
[21] = second compound 1 µM, first compound 0.316 µM
[22] = second compound 1 µM, first compound 1 µM
[23] = second compound 3.16 µM, first compound 0.0316 µM
[24] = second compound 3.16 µM, first compound 0.1 µM
[25] = second compound 10 µM, first compound 0.0316 µM
[26] = second compound 10 µM, first compound 0.1 µM
[27] = second compound 0.0316 µM, first compound 0.000316 µM
[28] = second compound 0.0316 µM, first compound 0.001 µM
[29] = second compound 0.0316 µM, first compound 0.00316 µM
[30] = second compound 0.0316 µM, first compound 0.01 µM
[31] = second compound 0.1 µM, first compound 0.000316 µM
[32] = second compound 0.1 µM, first compound 0.001 µM
[33] = second compound 0.1 µM, first compound 0.00316 µM
[34] = second compound 0.1 µM, first compound 0.01 µM
[35] = second compound 0.316 µM, first compound 0.000316 µM
[36] = second compound 0.316 µM, first compound 0.001 µM
[37] = second compound 0.316 µM, first compound 0.00316 µM
[38] = second compound 0.316 µM, first compound 0.01 µM
[39] = second compound 1 µM, first compound 0.000316 µM
[40] = second compound 1 µM, first compound 0.001 µM
[41] = second compound 1 µM, first compound 0.00316 µM
[42] = second compound 1 µM, first compound 0.01 µM
[43] = curve of first compound, second compound 0.00316 µM
[44] = curve of first compound, second compound 0.01 µM
[45] = second compound 0.00316 µM, first compound 0.00316 µM
[46] = second compound 0.00316 µM, first compound 0.01 µM
[47] = second compound 0.00316 µM, first compound 0.0316 µM
[48] = second compound 0.00316 µM, first compound 0.1 µM
[49] = second compound 0.01 µM, first compound 0.00316 µM
[50] = second compound 0.01 µM, first compound 0.01 µM
[51] = second compound 0.01 µM, first compound 0.0316 µM
[52] = second compound 0.01 µM, first compound 0.1 µM
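Also: spheroids exposed to agents for seven days before the viability read.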

Compound: C#Cc1c(F)ccc2cc(O)cc(-c3ncc4c(N5CC6CCC(C5)N6)nc(OCC56CCCN5CC(F)C6)nc4c3F)c12 (stereo not given) + Cc1nc(NC(=O)N2CCCC2C(N)=O)sc1-c1ccnc(C(C)(C)C(F)(F)F)c1
- IC50 [1]: > 10000 nM
- IC50 [2]: > 10000 nM
- IC50 [3]: > 10000 nM
- IC50 [4]: > 10000 nM
- IC50 [5]: > 10000 nM
- IC50 [6]: < 31.6 nM
- viability, T/C [7]: 95%
- viability, T/C [8]: 99.3%
- viability, T/C [9]: 103%
- viability, T/C [10]: 95.4%
- viability, T/C (second compound 0.0316 µM, first compound 3.16 µM): 106%
- viability, T/C (second compound 0.0316 µM, first compound 10 µM): 93.9%
- viability, T/C [11]: 98.5%
- viability, T/C [12]: 101%
- viability, T/C [13]: 98.4%
- viability, T/C [14]: 87.2%
- viability, T/C (second compound 0.1 µM, first compound 3.16 µM): 96%
- viability, T/C (second compound 0.1 µM, first compound 10 µM): 93.6%
- viability, T/C [15]: 76%
- viability, T/C [16]: 83.9%
- viability, T/C [17]: 91.3%
- viability, T/C [18]: 94.1%
- viability, T/C (second compound 0.316 µM, first compound 3.16 µM): 83.8%
- viability, T/C (second compound 0.316 µM, first compound 10 µM): 85.3%
- viability, T/C [19]: 75.9%
- viability, T/C [20]: 90.5%
- viability, T/C [21]: 77.8%
- viability, T/C [22]: 76.2%
- viability, T/C (second compound 1 µM, first compound 3.16 µM): 92.7%
- viability, T/C (second compound 1 µM, first compound 10 µM): 62.2%
- viability, T/C [23]: 55.6%
- viability, T/C [24]: 60.7%
- viability, T/C (second compound 3.16 µM, first compound 0.316 µM): 57.3%
- viability, T/C (second compound 3.16 µM, first compound 1 µM): 63.4%
- viability, T/C (second compound 3.16 µM, first compound 3.16 µM): 52.6%
- viability, T/C (second compound 3.16 µM, first compound 10 µM): 55.7%
- viability, T/C [25]: 34.2%
- viability, T/C [26]: 32.7%
- viability, T/C (second compound 10 µM, first compound 0.316 µM): 35.6%
- viability, T/C (second compound 10 µM, first compound 1 µM): 36.3%
- viability, T/C (second compound 10 µM, first compound 3.16 µM): 36.6%
- viability, T/C (second compound 10 µM, first compound 10 µM): 26%

Compound: CC(Cn1ccc(-c2ccc(C#N)c(Cl)c2)n1)NC(=O)c1cc(C(C)O)[nH]n1 (stereo not given)
- viability, T/C (compound 0.0316 µM): 108% [middle of 4 runs]
- viability, T/C (compound 0.1 µM): 95.5% [middle of 4 runs]
- viability, T/C (compound 0.316 µM): 112% [middle of 4 runs]
- viability, T/C (compound 1 µM): 93.7% [middle of 4 runs]
- viability, T/C (compound 3.16 µM): 99.2% [middle of 4 runs]
- viability, T/C (compound 10 µM): 77.8% [middle of 4 runs]
- IC50 (curve of compound): > 10000 nM

Compound: CCN1CCN(Cc2ccc(Nc3ncc(F)c(-c4cc(F)c5nc(C)n(C(C)C)c5c4)n3)nc2)CC1 + CC(Nc1ccc2c(c1)OCCn1cc(N3C(=O)OCC3C(F)F)nc1-2)C(N)=O
- IC50 [43]: > 1000 nM
- IC50 [44]: > 1000 nM
- IC50 [1]: > 1000 nM
- IC50 [2]: 713 nM
- IC50 [3]: 425 nM
- IC50 [4]: 162 nM
- viability, T/C [45]: 99.9%
- viability, T/C [46]: 99.6%
- viability, T/C [47]: 93.1%
- viability, T/C [48]: 105%
- viability, T/C (second compound 0.00316 µM, first compound 0.316 µM): 104%
- viability, T/C (second compound 0.00316 µM, first compound 1 µM): 67.5%
- viability, T/C [49]: 100%
- viability, T/C [50]: 97.8%
- viability, T/C [51]: 116%
- viability, T/C [52]: 85%
- viability, T/C (second compound 0.01 µM, first compound 0.316 µM): 89.2%
- viability, T/C (second compound 0.01 µM, first compound 1 µM): 69.6%
- viability, T/C [29]: 95.8%
- viability, T/C [30]: 80.7%
- viability, T/C [7]: 84.7%
- viability, T/C [8]: 101%
- viability, T/C [9]: 85.7%
- viability, T/C [10]: 57.5%
- viability, T/C [33]: 89.2%
- viability, T/C [34]: 82.9%
- viability, T/C [11]: 75.6%
- viability, T/C [12]: 94.1%
- viability, T/C [13]: 75.9%
- viability, T/C [14]: 39.2%
- viability, T/C [37]: 65%
- viability, T/C [38]: 79.3%
- viability, T/C [15]: 67.5%
- viability, T/C [16]: 62.1%
- viability, T/C [17]: 61.5%
- viability, T/C [18]: 22.9%
- viability, T/C [41]: 64%
- viability, T/C [42]: 54.1%
- viability, T/C [19]: 67.6%
- viability, T/C [20]: 47.5%
- viability, T/C [21]: 46.4%
- viability, T/C [22]: 14.2%

Continued, in another order:

- IC50 [1]: 14.2 nM
- IC50 [2]: 8.94 nM
- IC50 [3]: 11.1 nM
- IC50 [4]: 8.28 nM
- IC50 [5]: 3.89 nM
- IC50 [6]: < 0.316 nM
Compound: CC(C)n1nc(-c2ccc3oc(N)nc3c2)c2c(N)ncnc21 + Cc1nc(NC(=O)N2CCCC2C(N)=O)sc1-c1ccnc(C(C)(C)C(F)(F)F)c1
- viability, T/C [27]: 92.2%
- viability, T/C [28]: 87.7%
- viability, T/C [29]: 88.7%
- viability, T/C [30]: 44.3%
- viability, T/C [7]: 41.7%
- viability, T/C [8]: 9.88%
- viability, T/C [31]: 89.6%
- viability, T/C [32]: 82.7%
- viability, T/C [33]: 102%
- viability, T/C [34]: 45.5%
- viability, T/C [11]: 36%
- viability, T/C [12]: 11.5%
- viability, T/C [35]: 76.1%
- viability, T/C [36]: 80.2%
- viability, T/C [37]: 81.3%
- viability, T/C [38]: 49.1%
- viability, T/C [15]: 26.3%
- viability, T/C [16]: 10.8%
- viability, T/C [39]: 72.5%
- viability, T/C [40]: 69.4%
- viability, T/C [41]: 69.2%
- viability, T/C [42]: 43%
- viability, T/C [19]: 26.5%
- viability, T/C [20]: 8.31%
- viability, T/C (second compound 3.16 µM, first compound 0.000316 µM): 55.8%
- viability, T/C (second compound 3.16 µM, first compound 0.001 µM): 45.2%
- viability, T/C (second compound 3.16 µM, first compound 0.00316 µM): 60.2%
- viability, T/C (second compound 3.16 µM, first compound 0.01 µM): 39.2%
- viability, T/C [23]: 22%
- viability, T/C [24]: 5.92%
- viability, T/C (second compound 10 µM, first compound 0.000316 µM): 40.9%
- viability, T/C (second compound 10 µM, first compound 0.001 µM): 40.5%
- viability, T/C (second compound 10 µM, first compound 0.00316 µM): 40.1%
- viability, T/C (second compound 10 µM, first compound 0.01 µM): 26.4%
- viability, T/C [25]: 15.2%
- viability, T/C [26]: 4.44%

- IC50 [43]: > 100 nM
- IC50 [44]: > 100 nM
- IC50 [1]: > 100 nM
- IC50 [2]: 14.9 nM
- IC50 [3]: < 0.316 nM
- IC50 [4]: < 0.316 nM
Compound: Cn1ncnc1[C@H]1c2n[nH]c(=O)c3cc(F)cc(c23)N[C@@H]1c1ccc(F)cc1 + COc1c(OCCCN2CCOCC2)ccc2c3n(c(=NC(=O)c4cnc(N)nc4)nc12)CCN3
- viability, T/C (second compound 0.00316 µM, first compound 0.000316 µM): 98.6%
- viability, T/C (second compound 0.00316 µM, first compound 0.001 µM): 102%
- viability, T/C [45]: 95.6%
- viability, T/C [46]: 101%
- viability, T/C [47]: 98.2%
- viability, T/C [48]: 88.5%
- viability, T/C (second compound 0.01 µM, first compound 0.000316 µM): 93.8%
- viability, T/C (second compound 0.01 µM, first compound 0.001 µM): 103%
- viability, T/C [49]: 90.5%
- viability, T/C [50]: 93.1%
- viability, T/C [51]: 95.3%
- viability, T/C [52]: 76.2%
- viability, T/C [27]: 76%
- viability, T/C [28]: 77.7%
- viability, T/C [29]: 88%
- viability, T/C [30]: 83.4%
- viability, T/C [7]: 83.1%
- viability, T/C [8]: 69.8%
- viability, T/C [31]: 50%
- viability, T/C [32]: 50.7%
- viability, T/C [33]: 52%
- viability, T/C [34]: 57.5%
- viability, T/C [11]: 57.8%
- viability, T/C [12]: 37%
- viability, T/C [35]: 15.2%
- viability, T/C [36]: 16.3%
- viability, T/C [37]: 14.5%
- viability, T/C [38]: 13.9%
- viability, T/C [15]: 13.5%
- viability, T/C [16]: 7.08%
- viability, T/C [39]: 2.45%
- viability, T/C [40]: 1.53%
- viability, T/C [41]: 1.71%
- viability, T/C [42]: 2.18%
- viability, T/C [19]: 2.36%
- viability, T/C [20]: 1.28%
